From patent US6838467B2, “Dosing regimen” (Janssen Pharmaceutica N. V., priority 2000, dated 2005)

Tests used:
Type in all cases: in vivo
[1] = test system: T24 H-ras transformed NIH3T3 cell tumors; assay: Tumor studies in nude mice: T24 H-ras tumors, oral compound 1
From the text: (§1) Cell Culture: CAPAN-2 human pancreatic carcinoma cells were purchased from the American Type Culture Collection (Rockville, Md.). Cells were maintained in McCoys 5A Medium supplemented with 10% fetal calf serum and penicillin-streptomycin. NIH 3T3 cells transfected with the activated T24 H-ras oncogene (T24 cells ) were obtained from, Janssen Research Foundation (For methods see Parada, L. F., Tabin, C. J., Shih, C., and Weinberg, R Human EJ bladder carcinoma oncogene is
homologue of Harvey sarcoma virus ras gene. Nature 297: 474-478, 1982.; Santos, E., Tronick, S. R., Aaronson, S. A., Pulciani, S., and Barbacid, M. T24 human bladder carcinoma oncogene is an activated form of the normal human homologue of BALB-and Harvey-MSV transforming genes. Nature 298: 343-347, 1982.) T24 cells were maintained as monolayer cultures in Dulbecco's Modified Eagle's Medium (DMEM) supplemented with 10% Nu-serum Type IV (Collaborative Biomedical Products, Bedford, Mass. and 40 μg/ml G418 (Geneticin®, GIBCO-BRL, Gaithersburg, Md.).
(§2) Animals: Female nu/nu immunodeficient nude mice (42 days old) were purchased from Charles River Laboratories (Wilmington, Mass.). Mice were housed five per cage in microisolator cages placed in laminar flow shelving to maintain sterility. All bedding, food, water and cages were autoclaved. Animals were handled within the sterile confines of a laminar flow cabinet. The mice were otherwise maintained under standard vivarium conditions. Tumor studies were conducted under a protocol approved by the Institutional Animal Care and Use Committee.
(§3) Tumor Studies In Nude Mice: Cells growing as monolayers in T150 tissue culture flasks were detached by trypsinization with 10 ml of 0.05% trypsin plus 0.53 mM EDTA per flask. Tumor cell suspensions were pooled and trypsin was inactivated by the addition of serum containing medium (10 ml per 40 ml of trypsin cell suspension). Cells were collected by centrifugation and resuspended in Hank's Balanced Salt Solution (HBSS) warmed to 37° C. A 1.0 ml portion of cell suspension was added to 20 ml of diluent and counted on a Coulter particle counter. The cell suspensions were recentrifuged and resuspended at a concentration of 1×10^6 cell per 0.10 ml of HBSS. Mice were inoculated with a single subcutaneous injection of 0.10 ml of tumor cell suspension in the inguinal region. Mice were housed five per cage with 15 mice assigned to each treatment group. Body weight and tumor size as determined by caliper measurements were measured weekly. The caliper measurements of length and width were multiplied to obtain tumor areas. At the end of study, mice were sacrificed by CO2 asphyxiation.
Three days after tumor inoculation, the five day treatment with (R)-6-[amino(4-chlorophenyl)(1-methyl-1H-imidazol-5yl)methyl]-4-(3-chlorophenyl)-1-methyl-2(1H)-quinolinone (compound 1) was initiated. Compound 1 was administered once daily by oral gavage in a 20% beta-cyclodextrin vehicle as a volume of 0.10 ml of solution per 10 gm body weight. Control groups received the same dosage volume of the 20% beta-cyclodextrin vehicle.
Compounds. Compound 1 was prepared for oral administration by dissolving the compound first as a 2× concentrated stock in 40% hydroxypropyl beta cyclodextrin (lot no. 051-071/1) in 0.1 N HCI. Compound 1 was dissolved by stirring vigorously approximately 30 minutes followed by sonication for 10 min. The compound 1 solutions were brought to a final concentration by diluting 1:1 with 0.1 N HCI. The final drug solutions were sterile filtered immediately and transferred to sterile tubes. Solutions were stored refrigerated and protected form light during the course of the study and sterility was maintained by opening solutions under sterile laminar flow conditions.

[2] = test system: CAPAN-2 human pancreatic tumors; assay: Tumor studies in nude mice: CAPAN-2 tumors, oral compound 1; conditions: for tumor growth, continuous schedule: continuous for 18 days, previous study
From the text: as §1, §2, §3
[…] […] Control groups received the same dosage volume of the 20% beta-cyclodextrin vehicle.
[…] […] […] […] The final drug solutions were sterile filtered immediately and transferred to sterile tubes. Solutions were stored refrigerated and protected form light during the course of the study and sterility was maintained by opening solutions under sterile laminar flow conditions.

[3] = test system: T24 H-ras transformed NIH3T3 cell tumors; assay: Tumor studies in nude mice: T24 H-ras tumors, oral compound 1; conditions: for duration of response (tumor suppressive effect): five-day dosing schedule
[4] = 50, 100 and 200 mg/kg, five-day schedule, day 17

Compound: Cn1cncc1[C@@](N)(c1ccc(Cl)cc1)c1ccc2c(c1)c(-c1cccc(Cl)c1)cc(=O)n2C [compound 1, (R)-6-[amino(4-chlorophenyl)(1-methyl-1H-imidazol-5yl)methyl]-4-(3-chlorophenyl)-1-methyl-2(1H)-quinolinone]
- duration of response (tumor suppressive effect) ([1]; 50 mg/kg, five-day dosing schedule): waned by day 14
- tumor size on day 17 ([1]; 200 mg/kg once daily p.o. for five days (days 3-8 after tumor inoculation), day 17): small tumors
- reduction of final tumor weights ([1]; 200 mg/kg, five-day schedule, day 17): 90%
- reduction of tumor growth measured as final tumor area [1, 4]: Significant, dose-related reductions
- reduction of tumor growth measured as final tumor weights [1, 4]: Significant, dose-related reductions
- tumor growth after additional 5-day treatment ([1]; additional 5-day treatment with 200 mg/kg starting on day 21): again arrested but not as dramatically as in the initial treatment
- tumor growth, continuous schedule ([2]; 50 mg/kg twice daily (100 mg/kg total daily dose)): significant reductions of tumor growth
- tumor growth, continuous schedule ([2]; 100 mg/kg twice daily (200 mg/kg daily dose)): significant reductions of tumor growth
- tumor growth after day 24 without further treatment ([2]; 200 mg/kg for five days, no further treatment): returned to the growth rate observed for vehicle treated controls
- growth of CAPAN-2 tumors ([2]; 200 mg/kg p.o. once daily for five days, started three days after inoculation): significantly reduced the growth of CAPAN-2 tumors out to day 24
- tumor growth after additional five-day treatment ([2]; additional five-day treatment on days 21 to 25, significant on day 28): transient growth arrest
- duration of response (tumor suppressive effect) ([3]; 100 mg/kg): waned by day 14
- duration of response (tumor suppressive effect) ([3]; 200 mg dose): sustained effects out to day 17
- day by which tumors left untreated returned to rapid control growth rates ([3]; 200 mg/kg once daily p.o. for five days, no further treatment): ≤ 24 days
- duration of sustained inhibition of tumor growth ([3]; single 200 mg/kg dose three days after tumor inoculation): 15 days
- duration of sustained inhibition of tumor growth ([3]; single 400 mg/kg dose three days after tumor inoculation): 15 days
